Laboratory results published in PubChem BioAssay AID2060341 (Molecular Pharmacology Branch, DTP, NCI, 2025).

System: 327498-153-R-J2-PDC multicell spheroid viability
Assay: Anticancer human tumor 327498-153-R-J2-PDC patient-derived uterine carcinosarcoma cell line growth inhibition [IpAb]
Conditions: for viability, T/C: stronger effect = lower value
Description: Combinatorial screen of targeted agents with ipatasertib and abemaciclib in multi-cell type tumor spheroids
A high-throughput screen of multi-cell type tumor spheroids was designed to identify active combinations of targeted small molecules and ipatasertib or abemaciclib. Complex spheroids include a stromal component modeled by human endothelial cells (HUVEC) and fibroblasts modeled by human mesenchymal stem cells (MSCs). The concentration ranges selected for each drug and investigational agent were based upon clinically achievable concentrations if the clinical Cmax of the agent was known.
Compounds. The drugs and investigational agents: ipatasertib (NSC767898), abemaciclib(NSC768073), selumetinib (NSC741078), trametinib (758246), adavosertib (NSC754352), everolimus (NSC733504), sapanisertib (NSC764658), vemurafenib (NSC761431), venetoclax (NSC766270), copanlisib (NSC809693), apelisib (NSC765974), palbociblib (NSC758247), vemurafenib (NSC761431), dabrafenib (NSC764134), ravoxertinib (NSC781343), BMS-387032 (NSC767048), sotorasib (NSC818433), talazoparib (NSC767125) and afursertib (NSC778305), were obtained from the National Cancer Institute (NCI) Developmental Therapeutics Program Chemical Repository. The FDA-approved anticancer drug set is available from the NCI Developmental Therapeutics Program. […] The stock solutions were prepared in dimethyl sulfoxide (DMSO, Sigma-Aldrich, St. Louis, MO, cat. D2650) at 800-fold the tested concentration and stored at -70 degrees C prior to their use. All drugs and investigational agents were tested over a range starting from a high concentration at or near the clinical Cmax and decreasing in half-log increments. If the clinical Cmax for an agent had not been determined, the highest concentration tested was 10 microM.
NCI60 Cell Culture. NCI60 cell lines were obtained from the NCI Developmental Therapeutics Program Tumor Repository. For each lot of cells, the Repository performed Applied Biosystems AmpFLSTR Identifiler testing with PCR amplification to confirm consistency with the published Identifier STR profile for each cell line. Cells were kept in continuous culture for no more than 20 passages. The optimal seeding densities for each of the cell lines at each time point assessed were determined prior to performing the concentration response studies. Briefly, the NCI60 human tumor lines were grown as monolayers in RPMI 1640 medium supplemented with 10% FBS and 2 mmol/L L-glutamine.
An additional 9 lines were from the NCI60 cell line panel including MDA-MB-231 breast carcinoma, MDA-MB-468 breast carcinoma, MCF7 breast carcinoma, Hs578T breast carcinoma, MALME-3M melanoma, SK-MEL-2 melanoma, SK-OV-3 ovarian carcinoma, DU-145 prostate carcinoma, PC-3 prostate carcinoma, all cell lines along with major genetic alterations are listed on Table 2. Pooled donor human umbilical vein endothelial cells (HUVEC, Lonza, cat. CC-2519) and human mesenchymal stem cells (hMSC, Lonza, cat. PT-2501) were purchased from Lonza (Walkersville, MD).
PDMR cell lines were grown in complete medium (DC medium): Dulbecco's modified Eagle's medium (DMEM)/F12 supplemented with 5% fetal bovine serum (FBS), 2 mM L-glutamine, 100 U/mL penicillin and 100 µg/ml streptomycin, 0.4 µg/ml hydrocortisone, 10 ng/ml epidermal growth factor (EGF) recombinant human protein, 24 µg/mL adenine, and 0.1 mg/mL primocin. During culture from frozen stock vials, PDMR cells were cultured in the same medium containing 10 µM Y-27632 (see Table 3). The PDCs were cultured in complete DMEM/F12 media without 10 microM Y-27632 dihydrochloride for at least two passages prior to the screen. The pooled donor HUVEC and hMSC were cultured in endothelial cell growth medium 2 (PromoCell, Heidelberg, Germany, cat. C-22011) and mesenchymal stem cell growth medium 2 (PromoCell, cat. C-28009), respectively. For all experiments, HUVEC and hMSC were used at passages </=5.
[…]

[1] = curve of first compound, second compound 0.1 µM
[2] = curve of first compound, second compound 0.316 µM
[3] = curve of first compound, second compound 1 µM
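Note: spheroids exposed to agents for 7 days.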
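Throughout, for viability, T/C: 100% = DMSO vehicle control viability.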

SMILES: CCCS(=O)(=O)Nc1ccc(F)c(C(=O)c2c[nH]c3ncc(-c4ccc(Cl)cc4)cc23)c1F + CC(C)NCC(C(=O)N1CCN(c2ncnc3c2C(C)CC3O)CC1)c1ccc(Cl)cc1
- IC50 [1]: > 10000 nM
- IC50 [2]: > 10000 nM
- IC50 [3]: > 10000 nM
- IC50 (curve of first compound, second compound 3.16 µM): 2360 nM
- IC50 (curve of first compound, second compound 10 µM): < 31.6 nM
- viability, T/C (second compound 0.1 µM, first compound 0.0316 µM): 94.3%
- viability, T/C (second compound 0.1 µM, first compound 0.1 µM): 101%
- viability, T/C (second compound 0.1 µM, first compound 0.316 µM): 96.7%
- viability, T/C (second compound 0.1 µM, first compound 1 µM): 101%
- viability, T/C (second compound 0.1 µM, first compound 3.16 µM): 101%
- viability, T/C (second compound 0.1 µM, first compound 10 µM): 86.7%
- viability, T/C (second compound 0.316 µM, first compound 0.0316 µM): 72.2%
- viability, T/C (second compound 0.316 µM, first compound 0.1 µM): 74%
- viability, T/C (second compound 0.316 µM, first compound 0.316 µM): 80.6%
- viability, T/C (second compound 0.316 µM, first compound 1 µM): 81.1%
- viability, T/C (second compound 0.316 µM, first compound 3.16 µM): 85.3%
- viability, T/C (second compound 0.316 µM, first compound 10 µM): 63%
- viability, T/C (second compound 1 µM, first compound 0.0316 µM): 57.5%
- viability, T/C (second compound 1 µM, first compound 0.1 µM): 58.2%
- viability, T/C (second compound 1 µM, first compound 0.316 µM): 62.9%
- viability, T/C (second compound 1 µM, first compound 1 µM): 76.3%
- viability, T/C (second compound 1 µM, first compound 3.16 µM): 74.1%
- viability, T/C (second compound 1 µM, first compound 10 µM): 49%
- viability, T/C (second compound 3.16 µM, first compound 0.0316 µM): 49.6%
- viability, T/C (second compound 3.16 µM, first compound 0.1 µM): 50.3%
- viability, T/C (second compound 3.16 µM, first compound 0.316 µM): 52%
- viability, T/C (second compound 3.16 µM, first compound 1 µM): 56%
- viability, T/C (second compound 3.16 µM, first compound 3.16 µM): 54.4%
- viability, T/C (second compound 3.16 µM, first compound 10 µM): 42.1%
- viability, T/C (second compound 10 µM, first compound 0.0316 µM): 40.1%
- viability, T/C (second compound 10 µM, first compound 0.1 µM): 41.8%
- viability, T/C (second compound 10 µM, first compound 0.316 µM): 44.2%
- viability, T/C (second compound 10 µM, first compound 1 µM): 40.7%
- viability, T/C (second compound 10 µM, first compound 3.16 µM): 41.2%
- viability, T/C (second compound 10 µM, first compound 10 µM): 23.4%

SMILES: CC(C)NCC(C(=O)N1CCN(c2ncnc3c2C(C)CC3O)CC1)c1ccc(Cl)cc1 (stereo unspecified)
- viability, T/C (compound 0.1 µM): 98.4% [middle of 13 runs]
- viability, T/C (compound 0.316 µM): 80.2% [middle of 13 runs]
- viability, T/C (compound 1 µM): 59.7% [middle of 13 runs]
- viability, T/C (compound 3.16 µM): 48.1% [middle of 13 runs]
- viability, T/C (compound 10 µM): 34.2% [middle of 13 runs]
- IC50 (compound alone, run of 05/18/2021): 2.46 µM [middle of 13 runs]

SMILES: Cn1cnc2c(F)c(Nc3ccc(Br)cc3Cl)c(C(=O)NOCCO)cc21 + CCN1CCN(Cc2ccc(Nc3ncc(F)c(-c4cc(F)c5nc(C)n(C(C)C)c5c4)n3)nc2)CC1
- IC50 (curve of first compound, second compound 0.01 µM): 190 nM
- IC50 (curve of first compound, second compound 0.0316 µM): 19.5 nM
- IC50 [1]: < 9.49 nM
- IC50 [2]: < 9.49 nM
- IC50 [3]: < 9.49 nM
- viability, T/C (second compound 0.01 µM, first compound 0.00949 µM): 79.8%
- viability, T/C (second compound 0.01 µM, first compound 0.03 µM): 64.2%
- viability, T/C (second compound 0.01 µM, first compound 0.0949 µM): 53.6%
- viability, T/C (second compound 0.01 µM, first compound 0.3 µM): 48.5%
- viability, T/C (second compound 0.01 µM, first compound 0.949 µM): 38.1%
- viability, T/C (second compound 0.01 µM, first compound 3 µM): 24.4%
- viability, T/C (second compound 0.0316 µM, first compound 0.00949 µM): 54.8%
- viability, T/C (second compound 0.0316 µM, first compound 0.03 µM): 46.3%
- viability, T/C (second compound 0.0316 µM, first compound 0.0949 µM): 40.3%
- viability, T/C (second compound 0.0316 µM, first compound 0.3 µM): 39%
- viability, T/C (second compound 0.0316 µM, first compound 0.949 µM): 31.6%
- viability, T/C (second compound 0.0316 µM, first compound 3 µM): 22%
- viability, T/C (second compound 0.1 µM, first compound 0.00949 µM): 48.9%
- viability, T/C (second compound 0.1 µM, first compound 0.03 µM): 42.7%
- viability, T/C (second compound 0.1 µM, first compound 0.0949 µM): 39.5%
- viability, T/C (second compound 0.1 µM, first compound 0.3 µM): 33.9%
- viability, T/C (second compound 0.1 µM, first compound 0.949 µM): 28.5%
- viability, T/C (second compound 0.1 µM, first compound 3 µM): 20.9%
- viability, T/C (second compound 0.316 µM, first compound 0.00949 µM): 42.9%
- viability, T/C (second compound 0.316 µM, first compound 0.03 µM): 41.7%
- viability, T/C (second compound 0.316 µM, first compound 0.0949 µM): 35.9%
- viability, T/C (second compound 0.316 µM, first compound 0.3 µM): 33%
- viability, T/C (second compound 0.316 µM, first compound 0.949 µM): 24.6%
- viability, T/C (second compound 0.316 µM, first compound 3 µM): 20.3%
- viability, T/C (second compound 1 µM, first compound 0.00949 µM): 45.3%
- viability, T/C (second compound 1 µM, first compound 0.03 µM): 43%
- viability, T/C (second compound 1 µM, first compound 0.0949 µM): 36.5%
- viability, T/C (second compound 1 µM, first compound 0.3 µM): 29.4%
- viability, T/C (second compound 1 µM, first compound 0.949 µM): 26.3%
- viability, T/C (second compound 1 µM, first compound 3 µM): 17.8%
